Series [1] concerns T. cruzi Arequipa strain epimastigotes. Description: Screening against extracellular epimastigotes, Arequipa strain (resazurin). The class given is cell-based, Trypanosoma cruzi. As for the experimental part: (§1) Three different T. cruzi […] strains—MHOM/Pe/2011/Arequipa, discrete typing unit (DTU) V [26]; IRHOD/CO/2008/SN3, DTU I [27]; TINF/CH/1956/Tulahuen, DTU VI [26]—were grown at 28 °C in Gibco® RPMI 1640 Medium supplemented as previously reported, and used for in vitro screening.
(§2) Trypanocidal activity against epimastigotes was tested as previously reported. In brief, 5 × 10^5 mL^−1 epimastigotes culture medium were treated by adding the compounds in serial dilutions from 100 to 0.2 µM in 96-well plates (200 µL·well^−1) for 48 h. BZN and untreated growth control were also included in triplicate. Later, 20 μL of resazurin sodium salt (Sigma-Aldrich, St. Louis, MO, USA) was added, and the plates were incubated for another 24 h. Finally, the absorbance of the wells was measured at 570/600 nm and related to the control. The trypanocidal activity was expressed as the IC50 (inhibitory concentration 50) value using GraphPad Prism 6 software.
In general terms: Resazurin is reduced to fluorescent resorufin, in cell work by metabolically active cells.

Series [2] concerns T. cruzi Arequipa strain amastigotes. As to the kind of experiment: Screening against intracellular amastigotes in Vero cells, Arequipa strain (Giemsa counting). The class given is cell-based, Trypanosoma cruzi. The procedure: (§3) TINF/CH/1956/Tulahuen, DTU VI [26]—were grown at 28 °C in Gibco® RPMI 1640 Medium supplemented as previously reported, and used for in vitro screening. Trypanocidal activity against amastigotes was tested as previously reported. In brief, bloodstream trypomastigotes (BTs), obtained by cardiac puncture from infected BALB/c mice, were used to infect 1 × 10^4 Vero cells·well^−1 in 24-well plates with rounded coverslips at a multiplicity of infection (MOI) ratio of 10:1. After 24 h of infection, non-internalized trypomastigotes were washed and the infected cells were treated by adding the compounds in serial dilutions from 50 to 0.5 µM in […] for 72 h. BZN and untreated growth controls were also included in triplicate. Later, the number of amastigotes and infected cells were determined in Giemsa stained preparations by analysing 500 host cells randomly distributed in microscopic fields. The trypanocidal activity was expressed as the IC50 using GraphPad Prism 6 software (version 6.07).

The subject of series [3] is T. cruzi SN3 strain epimastigotes. As to the kind of experiment: Screening against extracellular epimastigotes, SN3 strain (resazurin). Format: cell-based, Trypanosoma cruzi. The procedure:
as §1, §2

Series [4] concerns T. cruzi SN3 strain amastigotes. As to the kind of experiment: Screening against intracellular amastigotes in Vero cells, SN3 strain (Giemsa counting). Format: cell-based, Trypanosoma cruzi. As for the experimental part: as §3
Series [5] deals with T. cruzi SN3 strain trypomastigotes. As to the kind of experiment: Screening against bloodstream trypomastigotes, SN3 strain (resazurin). The class given is cell-based, Trypanosoma cruzi.
Series [6] concerns T. cruzi Tulahuen strain trypomastigotes. As to the kind of experiment: Screening against bloodstream trypomastigotes, Tulahuen strain (resazurin). Format: cell-based, Trypanosoma cruzi.
Series [7] relates to Vero cells. Description: Cytotoxicity test on mammalian Vero cells (resazurin). The conditions noted are these: Chlorocebus sabaeus, 48 h treatment + 24 h resazurin, mean of three ± SD, read-out: Toxicity IC50 Vero Cell. Format: cell-based. As for the experimental part:
Cytotoxicity against mammalian Vero cells (EACC No. 84113001) was tested as previously reported. In brief, 1.25 × 10^4 Vero cells·mL^−1, cultured at 37 °C, were treated by adding the compounds in serial dilutions from 400 to 1 µM in 96-well plates (200 µL·well^−1) for 48 h. BZN and untreated controls were also included in triplicate. Later, 20 μL of resazurin sodium salt (Sigma-Aldrich) was added, and the plates were incubated for another 24 h. Finally, cell viability was determined following the same procedure as described to assess the trypanocidal activity in the epimastigotes.

The subject of series [8] is T. cruzi Arequipa strain. As to the kind of experiment: Nested amastigotes detection by PCR in nine target organs/tissues of infected BALB/c mice. The class given is in vivo, Trypanosoma cruzi. Conditions: oral 20 mg/Kg/day for 5 days. As for the experimental part: (§4) Infection was carried out by intraperitoneal inoculation of 5 × 10^5 BTs of T. cruzi Arequipa strain per mouse in 0.2 mL PBS [26]. The infection was monitored and on the 10th day post-infection (dpi), when BTs were visible in the bloodstream, the infection was confirmed.
(§5) Mice were divided into four groups (n = 3 per group): 0, negative control group (uninfected and untreated mice); I, positive control group (infected and untreated mice); II, BZN group (mice infected and treated with BZN); III, 15 group (mice infected and treated with 15).
(§6) The treatment for mice treated in the acute and chronic CD began when the infection was confirmed (10th dpi) and was stablished that the animals had entered the chronic CD (75th dpi), respectively (Scheme 1). Compound 15 and BZN were orally administered for 5 consecutive days at a dose of 20 mg·Kg^−1·day^−1.
After CP-induced immunosuppression, the mice were euthanised using CO2 by exsanguination via cardiac puncture, and blood was collected. Then, 9 target organs/tissues were harvested: adipose, bone marrow, brain, oesophagus, heart, lung, muscle, spleen, and stomach. These organs/tissues were perfused with pre-warmed PBS to avoid contamination with BTs, and stored at −80 °C. In addition, spleens were weighed to assess splenomegaly.
DNA extraction of the target organs/tissues was performed using Wizard® Genomic DNA Purification Kit. DNA was subjected to amplification by PCR based on the sequence of the T. cruzi splice leader (SL) intergenic region using two published primers (TC and TC1) that allow the amplification of a 300 base pairs fragment in different biological samples. […]

In series [9] the test system is epimastigotes of T. cruzi Arequipa strain. Description: Mitochondrial membrane potential by flow cytometry (rhodamine 123). The class given is cell-based, Trypanosoma cruzi. The conditions noted are these: compounds at IC25 concentrations, 72 h; KCN 10 mM, 40 min; mean of three ± SD.
The format of series [10] is in vivo, BALB/c mice. Conditions: oral 20 mg/Kg/day for 5 days; acute and chronic infections. The procedure: All animal work (Scheme 1) and maintenance was performed under RD53/2013 and approved by the Ethics Committee on Animal Experimentation (CEEA) of the University of Granada, Spain. Female BALB/c mice (aged 10–12 weeks and 20–22 g) were used in the subsequent in vivo assays.
as §4, §5, §6

Where [11] appears, read: IC50 Vero cells/IC50 epimastigotes.
Where [12] appears, read: IC50 Vero cells/IC50 amastigotes.
Setting [13] is: Trypanosoma cruzi, amastigotes in Vero cells, 72 h, mean of three ± SD.
[14] abbreviates: IC50 Vero cells/IC50 trypomastigotes.

As for `c1cc2nc(c1)CNCCN(CCNCc1ccc3ccc4ccc(CNCCN5CCNCc6cccc(n6)CNCC5)nc4c3n1)CCNC2` [Compound 15], the “Selectivity Index T. cruzi Arequipa Strain E” value in [1] (setting [11]) came to 101.7. Moreover, the IC50 (commonly the concentration needed to halve the response being measured) was 6.4 ± 0.6 µM in [1] (Trypanosoma cruzi, epimastigotes, 48 h treatment + 24 h resazurin, mean of three ± SD, read-out: Activity IC50 T. cruzi Arequipa Strain E); 2.5 ± 0.3 µM in series [2] (setting [13]); 16.9 ± 1.4 µM in series [3] (Trypanosoma cruzi, epimastigotes, 48 h treatment + 24 h resazurin, mean of three ± SD, read-out: Activity IC50 T. cruzi SN3 Strain E); 11.3 ± 0.9 µM in series [4] (setting [13]); 10.6 ± 0.9 µM in [5] (Trypanosoma cruzi, trypomastigotes, 24 h + 4 h resazurin, mean of three ± SD); 7.8 ± 0.7 µM in [6] (Trypanosoma cruzi, TULAHUEN, trypomastigotes, 24 h + 4 h resazurin, mean of three ± SD). Moreover, in series [2] (setting [12]), the “Selectivity Index T. cruzi Arequipa Strain A” value stood at 262.0. Besides, the “Selectivity Index T. cruzi SN3 Strain E” value in series [3] (setting [11]) was found to be 38.7. In [4] (setting [12]), the “Selectivity Index T. cruzi SN3 Strain A” value was 58.0. Also, the “Selectivity Index T. cruzi SN3 Strain T” value in series [5] (setting [14]) is listed as 62.0. Also, the “Selectivity Index T. cruzi Tulahuen Strain T” value in [6] (setting [14]) is given as 83.6. The CC50 in [7] came out at 655 ± 51.9 µM. In addition, the “clearance of nested parasites in target organs/tissues (parasite-free organs/tissues, PCR)” value in series [8] (treatment in the acute infection) is 67%; in series [8] (treatment in the chronic infection), 89%. In addition, the “Inhibition on mitochondrial membrane potential with respect to untreated epimastigotes” value in [9] came to 43.1%. In series [10], the “death or body mass loss of treated mice” value is recorded as “none of the mice died or lost more than 10% body mass”.

The values are drawn from article PMC9863987, “Identification of Aryl Polyamines Derivatives as Anti-Trypanosoma cruzi Agents Targeting Iron Superoxide Dismutase” (Pharmaceutics, 2022).
